Structures are written as SMILES.

The data set is described as follows: RP, Waters ACQUITY UPLC BEH C18, 100 × 1 mm, 1.7 µm, 50 °C, 0.3 mL/min, estimated dead time 0.17 min; A: water + 0.1% formic acid + 20 mM ammonium formate; B: methanol + 0.1% formic acid + 20 mM ammonium formate; gradient (min/%B) 0/0 15/100 21/100 22/0 30/0. The following applies: stereoisomer not certain.
In the case of `COCCCOc1cc(CC(CC(N)C(O)CC(C(=O)NCC(C)(C)C(N)=O)C(C)C)C(C)C)ccc1OC` (stereo not drawn) [Aliskiren], the LC retention time was 13.6 min.
With `Cc1ccc(N=CN(C)C=Nc2ccc(C)cc2C)c(C)c1` [Amitraz], the LC retention time was 17.7 min.
In the case of `CC1CC(O)C2(O)C13CC(OC(=O)C3O)C(C)(O)C21COC1=O` (stereo not drawn) [Anisatin] it was 7.91 min.
In the case of `O=c1cc(-c2ccc(O)cc2)oc2cc(OC3OC(CO)C(O)C(O)C3OC3OCC(O)(CO)C3O)cc(O)c12` (stereo not drawn) [Apiin] it was 10.3 min.
As for `CC(C)Nc1nc(N)[nH]c(=O)n1` [Atrazin-desethyl-2-hydroxy], the LC retention time was 4.31 min.
In the case of `CCC(C)C1OC2(C=CC1C)CC1CC(CC=C(C)C(OC3CC(OC)C(OC4CC(OC)C(O)C(C)O4)C(C)O3)C(C)C=CC=C3COC4C(O)C(C)=CC(C(=O)O1)C34O)O2` (stereo not drawn) [Avermectin B1a (Abamectin)] it was 18.1 min.
On to `N#Cc1ccccc1Oc1cc(=O)[nH]cn1` [Azoxystrobin-metabolite], for which the LC retention time was 8.9 min.
As for `CC(=O)OC1C(=O)C2(C)C(O)CC3OCC3(OC(C)=O)C2C(OC(=O)c2ccccc2)C2(O)CC(O)C(C)=C1C2(C)C` (stereo not drawn) [Baccatin III], the LC retention time was 12.5 min.
In the case of `CC(C)OC(=O)NC(C(=O)NC(C)c1nc2ccc(F)cc2s1)C(C)C` (stereo not drawn) [Benthiavalicarb-Isopropyl] it was 14.5 min.
As for `Nc1nc(N)nc(-c2ccccc2)n1` [Benzoguanamine], the LC retention time is 7.87 min.
Consider `O=C(O)c1ccc2ncsc2c1` [Benzothiazole-6-carbons<e4>ure], for which the LC retention time was 9.32 min.
With `c1ccc2scnc2c1` [Benzothiazole], the LC retention time is 10.8 min.
As for `CC(=O)OCC(=O)C1(O)C(C)CC2C3CCC4=CC(=O)C=CC4(C)C3(F)C(O)CC21C` (stereo not drawn) [Betamethasone-21-acetate], the LC retention time was 14.1 min.
Regarding `CCOCCOC(=O)c1ccccc1C(=O)OCCOCC` [Bis(2-ethoxyethyl)phthalate], the LC retention time was 13.3 min.
`COCCOC(=O)c1ccccc1C(=O)OCCOC` [Bis(2-methoxyethyl)phthalate]: the LC retention time was 12.3 min.
For `CC(C)CC(C)OC(=O)c1ccccc1C(=O)OC(C)CC(C)C` (stereo not drawn) [Bis(4-methyl-2-pentanyl)phthalate], the LC retention time was 18.2 min.
Regarding `Oc1ccc(C(=C(Cl)Cl)c2ccc(O)cc2)cc1` [Bisphenol C-dichloride], the LC retention time was 10.5 min.
Turning to `CC(c1ccc(O)cc1)c1ccc(O)cc1` [Bisphenol E], the LC retention time was 11.5 min.
On to `Oc1ccc(C2(c3ccc(O)cc3)CCCCC2)cc1` [Bisphenol Z], for which the LC retention time is 16 min.
Take `Cn1cc(C(=O)Nc2ccc(F)cc2-c2ccc(Cl)c(Cl)c2)c(C(F)F)n1` [Bixafen]: the LC retention time was 15.4 min.
In the case of `CCC(C)n1c(=O)[nH]c(C)c(Br)c1=O` (stereo not drawn) [Bromacil] it was 11.5 min; in that of `CCCCOc1ccc(CC(=O)NO)cc1` [Bufexamac], 12.6 min; in that of `CCCCN1CCCCC1C(=O)Nc1c(C)cccc1C` (stereo not drawn) [Bupivacaine], 10.6 min.
For the molecule `CCCCOCN(C(=O)CS(=O)(=O)O)c1c(CC)cccc1CC` [Butachlor ESA], the LC retention time is 14.5 min.
Turning to `CCC1(O)C(=O)OCc2c1cc1n(c2=O)Cc2cc3ccccc3nc2-1` (stereo not drawn) [Camptothecin], the LC retention time is 12 min.
In the case of `CC1=C(C(=O)Nc2ccccc2)SCCO1` [Carboxin], the LC retention time was 11.9 min.
Consider `NS(=O)(=O)c1ccc(-n2nc(C(F)(F)F)cc2-c2ccc(C(=O)O)cc2)cc1` [Celecoxib Carboxylic Acid], for which the LC retention time was 13.6 min.
On to `CCN(CC)C(=O)Nc1ccc(OCC(O)CNC(C)(C)C)c(C(C)=O)c1` (stereo not drawn) [Celiprolol], for which the LC retention time was 9.97 min.
As for `CC(CCC(=O)O)C1CCC2C3C(O)CC4CC(O)CCC4(C)C3CCC12C` (stereo not drawn) [Chenodeoxycholic acid], the LC retention time is 17.1 min.
Turning to `Cc1cc(Cl)ccc1N=CN(C)C` [Chlordimeform], the LC retention time is 8.37 min.
For `O=C(O)Cc1c(Cl)ccc(Cl)c1Cl` [Chlorfenac], the LC retention time was 2.02 min.
In the case of `CC(C)OC(=O)Nc1cccc(Cl)c1` [Chlorpropham] it was 14.4 min; in that of `COP(=O)(OC)Oc1nc(Cl)c(Cl)cc1Cl` [Chlorpyrifos-methyl-oxon], 13.7 min; in that of `CCOP(=O)(OCC)Oc1nc(Cl)c(Cl)cc1Cl` [Chlorpyrifos-oxon], 15.2 min.
Turning to `CCOP(=S)(OCC)Oc1nc(Cl)c(Cl)cc1Cl` [Chlorpyriphos-ethyl], the LC retention time was 17.1 min.
As for `NS(=O)(=O)c1cc2c(cc1Cl)NC=NS2(=O)=O` [Chlorthiazide], the figure is 4.7 min.
With `CC(C)CCCC(C)C1CCC2C3CC=C4CC(O)CCC4(C)C3CCC12C` (stereo not drawn) [Cholesterol], the LC retention time was 21.4 min.
For `CC(CCC(=O)O)C1CCC2C3C(O)CC4CC(O)CCC4(C)C3CC(O)C12C` (stereo not drawn) [Cholic acid], the LC retention time was 16.1 min.
As for `Cc1cc(C2CCCCC2)n(O)c(=O)c1` [Ciclopirox], the figure is 14.9 min.
For `CC1OC(OC2CCC3(C=O)C4CCC5(C)C(C6=CC(=O)OC6)CCC5(O)C4CCC3(O)C2)C(O)C(O)C1O` (stereo not drawn) [Convallatoxin], the LC retention time was 11.2 min.
With `CCNc1nc(Cl)nc(NC(C)(C)C#N)n1` [Cyanazin], the LC retention time was 11.3 min.
Regarding `NC1CCCCC1` [Cyclohexylamine], the LC retention time was 4.9 min.
In the case of `O=P1(N(CCCl)CCCl)NCCCO1` (stereo not drawn) [Cyclophosphamide] it was 10.7 min; in that of `CCNC(=O)NC(=O)C(C#N)=NOC` [Cymoxanil], 9.68 min; in that of `CCCCCCCCn1sc(Cl)c(Cl)c1=O` [DCOIT], 17 min.
For `O=C(O)C1OC(Oc2ccc3c(=O)c(-c4ccc(O)cc4)coc3c2)C(O)C(O)C1O` (stereo not drawn) [Daidzein_glucuronide], the LC retention time is 8.4 min.
On to `CCCCCCCCCC(=O)OC(CC(=O)[O-])C[N+](C)(C)C` [Decanoyl-L-Carnitine], for which the LC retention time was 14.5 min.
For the molecule `CCS(=O)(=O)CCSP(=O)(OC)OC` [Demeton-S-methyl-sulfone], the LC retention time was 7.78 min.
For `CCSCCSP(=O)(OC)OC` [Demeton-S-methyl], the LC retention time is 11.8 min.
As for `CC(CCC(=O)O)C1CCC2C3CCC4CC(O)CCC4(C)C3CC(O)C12C` (stereo not drawn) [Deoxycholic acid], the figure is 17.1 min; as for `CCNC(=O)C(C)Oc1cccc2ccccc12` (stereo not drawn) [Desethyl-napropamide], 14 min; as for `CCOP(=O)(OCC)Oc1cc(C)nc(C(C)C)n1` [Diazoxon / Diazinon-oxon], 15.7 min.
In the case of `CCCCOc1cc(C(=O)NCCN(CC)CC)c2ccccc2n1` [Dibucaine], the LC retention time is 13 min.
In the case of `Cc1cc(C(C)(C)C)c(O)c(C(C)(C)C)c1` [Dibutylhydroxytoluene], the LC retention time was 17 min.
`CC(Oc1ccc(Oc2ccc(Cl)cc2Cl)cc1)C(=O)O` (stereo not drawn) [Diclofop]: the LC retention time was 14.3 min.
In the case of `O=C(NC1CCCCC1)NC1CCCCC1` [Dicyclohexylurea] it was 14 min.
For `CCCCCCCCCCCCOC(=O)c1ccccc1C(=O)OCCCCCCCCCCCC` [Didodecylphthalate], the LC retention time is 21.7 min.
In the case of `CC12CCC3=C4CCC(=O)C=C4CCC3C1CCC2(O)CC#N` (stereo not drawn) [Dienogest] it was 12.6 min.
Regarding `CCOc1ccc(NC(=O)OC(C)C)cc1OCC` [Diethofencarb], the LC retention time is 7.48 min.
With `CCOP(=O)(O)OCC` [Diethyl phopshate], the LC retention time was 16.3 min.
For `COCCOCCO` [Diethyleneglycolmonomethylether], the LC retention time is 5.03 min.
For the molecule `O=C(O)c1cccnc1Oc1cccc(C(F)(F)F)c1` [Diflufenican-metabolite], the LC retention time was 13.2 min.
For `COCCOCCOC` [Diglyme], the LC retention time is 7.31 min.
For the molecule `CCCCCCOC(=O)c1ccccc1C(=O)OCCCCCC` [Dihexylphthalate], the LC retention time is 18.2 min.
Turning to `COc1ccc2c3c1OC1C(O)CCC4C(C2)N(C)CCC341` (stereo not drawn) [Dihydrocodein], the LC retention time was 6.74 min.
As for `CN(C)C(=O)Nc1ccc(-n2nc(C(C)(C)C)oc2=O)c(Cl)c1` [Dimefuron], the figure is 13.6 min.
For `COCC(C)N(C(=O)CS(=O)(=O)O)c1c(C)csc1C` (stereo not drawn) [Dimethenamid-M 27 (ESA)], the LC retention time is 10.8 min.
As for `Cc1csc(C)c1NC(=O)CCl` [Dimethenamid-N-dealkylation], the LC retention time was 10.2 min.
In the case of `COC(=O)c1ccccc1C(=O)OC` [Dimethylphthalat DMP] it was 11.2 min; in that of `CNC(=O)Oc1ccccc1C1OCCO1` [Dioxacarb], 15.1 min.
In the case of `c1ccc(Oc2ccccc2)cc1` [Diphenylether] it was 13.5 min.
With `O=[P+](c1ccccc1)c1ccccc1` [Diphenylphosphine oxide], the LC retention time was 11.8 min.
In the case of `Cc1ccc(OP(=O)(Oc2ccccc2)Oc2ccccc2)cc1` [Diphenyltolyl phosphate] it was 16.3 min; in that of `CCOP(=S)(OCC)SCCS(=O)CC` (stereo not drawn) [Disulfoton-sulfoxide], 12.7 min; in that of `CCOP(=S)(OCC)SCCSCC` [Disulfoton], 16 min.
As for `Cc1ccc(OP(=O)(Oc2ccccc2)Oc2ccc(C)cc2)cc1` [Ditolyl phenyl phosphate], the figure is 14 min.
Take `CCCCCCCCCCCOC(=O)c1ccccc1C(=O)OCCCCCCCCCCC` [Diundecylphthalate]: the LC retention time was 21 min.
In the case of `O=C1CCCCCCCCCCCN1` [Dodecane-12-lactam], the LC retention time is 14 min.

Values taken from the RepoRT retention time repository (doi:10.1021/acs.analchem.1c00972).
